Measured values taken from patent US20200323950A1, “ANTIBACTERIAL PEPTIDES AND COMBINATIONS FOR CO-THERAPY” (priority 2017, published 2020).
Values joined by “and” are separate entries in the source; they are usually repeats but may differ in a detail not shown here. Equal values may be shown once. *1 amine or outer side, *2 acyl side, *3 side chain or, on linkers, in order; H or OH if unused. Where a SMILES comes first, the peptide text is derived from it. Bridges are numbered along the chain shown (N, C = ends). Roman numbers before positions name the chains, in order. Where no end group is shown, it is not given here. [ ]: non-standard residue; d: D form. The star is where a group is joined. X2 = O=C1NC(=O)C(SC[C@@H](CO)N[*:2])=C1SC[C@@H](CO)N[*:1]; BMH = O=C1CC([*:1])C(=O)N1CCCCCCN1C(=O)CC([*:2])C1=O; Maleimide(3,4-diyl) = O=C1NC(=O)C([*:2])=C1[*:1]; pXylylene = c1cc(C[*:2])ccc1C[*:1]; aThr = C[C@H](O)[C@H](N)C(=O)O; Ac6c = NC1(C(=O)O)CCCCC1; X1 = C(=C\C[*:2])/C[*:1]; Dab = NCC[C@H](N)C(=O)O; Nva = CCC[C@H](N)C(=O)O; NHNH2 = NN*

What was measured:
[1] = tested on: Klebsiella pneumoniae K97/09; assay: Checkerboard synergy assay (FIC index); assay type: cell-based; settings: K. pneumoniae K97/09
Experimental: In vitro activity and synergy. Minimal inhibitory concentration (MIC) assays were performed using sterile 96-well polypropylene plates in a final volume of […]. Briefly, 50 μL of midlogarithmic phase bacterial cultures were diluted to 5×10^5 CFU/mL in Mueller-Hinton broth (MHB) and then added to 50 μL of the serially diluted antibiotic. The highest A3-APO and other test compound concentration evaluated was 256 mg/L. Cultures were incubated at 37° C. for 16-20 h without shaking. MICs were identified as the lowest antimicrobial concentrations at which turbidity was not observed. Antimicrobial synergy was determined by evaluating the fractional inhibitory concentration (FIC) index and was characterized by a conventional checkerboard assay (Fernandez-Cuenca et al., 2003). Bacteria grown to mid-logarithmic phase in MHB were pre-incubated with serially diluted concentrations of peptides such as A3-APO, and the antimicrobial controls, imipenem, colistin or meropenem.
The sum of the FICs (Σ FIC) was calculated with the equation Σ FIC=FICA+FICB=(CA/MICA)+(CB/MICB), where MICA and MICB are the MICs of antimicrobial A and B alone, respectively, and CA and CB are the concentrations of the drugs when combined, respectively. Synergy was defined as a Σ FICs≤0.5 and additive activity was defined as a Σ FICs>0.5≤1.0.

[2] = tested on: Acinetobacter baumannii BAA-1605; assay type: cell-based; settings: A. baumannii BAA-1605
Experimental: In vitro activity and synergy. Minimal inhibitory concentration (MIC) assays were performed using sterile 96-well polypropylene plates in a final volume of 100 mL. Briefly, 50 μL of midlogarithmic phase bacterial cultures were diluted to 5×10^5 CFU/mL in Mueller-Hinton broth (MHB) and then added to 50 μL of the serially diluted antibiotic. […] MICs were identified as the lowest antimicrobial concentrations at which turbidity was not observed. Antimicrobial synergy was determined by evaluating the fractional inhibitory concentration (FIC) index and was characterized by a conventional checkerboard assay (Fernandez-Cuenca et al., 2003).

P. aeruginosa ATCC 47085 = assay: Antibacterial assay (MIC); assay type: cell-based; settings: P. aeruginosa ATCC 47085, MHB, 37° C.
Experimental: (§1) Antibacterial assay. Antibacterial assays are undertaken to determine the minimal inhibitory concentrations (MIC) as described previouslyl^6.
(§2) Antibacterial activity. Each C-terminal modified PrAMP DTM-linked tetramer is assayed against nosocomial Gram-negative bacteria, including E. coli ATCC 29222, K. pneumoniae ATCC 13883, A. baumannii ATCC 19606 and P. aeruginosa ATCC 47085.

K. pneumoniae ATCC 13883 = assay: Antibacterial assay (MIC); assay type: cell-based; settings: K. pneumoniae ATCC 13883, MHB, 37° C.
Experimental: as §1, §2

E. coli ATCC 29222 = assay: Antibacterial assay (MIC); assay type: cell-based; settings: E. coli ATCC 29222, MHB, 37° C.
Experimental: as §1, §2

A. baumannii ATCC 19606 = assay: Antibacterial assay (MIC); assay type: cell-based; settings: A. baumannii ATCC 19606, MHB, 37° C.
Experimental: as §1, §2

[3] = tested on: multidrug-resistant Acinetobacter baumannii BAA-1605; settings: A. baumannii BAA-1605, compound alone
[4] = tested on: multidrug-resistant Klebsiella pneumoniae K97/09; settings: K. pneumoniae K97/09, compound alone

| Compound | improvement in the MIC values when added together with imipenem or colistin [1] | improvement in the MIC values when added together with imipenem or colistin [2] | Antibacterial activity, MIC (P. aeruginosa ATCC 47085) [µM] | Antibacterial activity, MIC (K. pneumoniae ATCC 13883) [µM] | Antibacterial activity, MIC (E. coli ATCC 29222) [µM] | Antibacterial activity, MIC (A. baumannii ATCC 19606) [µM] | MIC [3] [µg/mL] | MIC [4] |
| --- | --- | --- | --- | --- | --- | --- | --- | --- |
| CCC[C@H](NC(=O)[C@H](CCC(=O)O)NC(=O)[C@@H](N)[C@H](C)O)C(=O)N[C@H](C(=O)N[C@@H](C)C(=O)N[C@@H](CC(C)C)C(=O)N[C@@H](CO)C(=O)N[C@@H](CCCNC(=N)N)C(=O)NC1(C(N)=O)CCCCC1)C(C)C [Allo-aca] (H-[aThr]E[Nva]VALSR[Ac6c]-NH2; N-terminus and C-terminus assumed) | failed to exert any improvement | failed to exert any improvement | – | – | – | – | – | – |
| I: H-[Ac6c]RPDKPRPYLPRPRPPRPVR[Dab]-NH2 / II: H-[Ac6c]RPDKPRPYLPRPRPPRPVR (amide I:21-II:C) [A3-APO, (H-Chex-Arg-Pro-Asp-Lys-Pro-Arg-Pro-Tyr-Leu-Pro-Arg-Pro-Arg-Pro-Pro-Arg-Pro-Val-Arg)2-Dab] | – | – | 3.13 ± 0.05 | 1.44 ± 0.12 | 2.58 ± 1.14 | 8.00 ± 1.09 | 32 | 32 to 64 µg/mL and 32 µg/mL |
| I: H-[Ac6c]RPDKPRPYLPRPRPPRPVR[Dab]-NHNH2 / II: H-[Ac6c]RPDKPRPYLPRPRPPRPVR (amide I:21-II:C) [dimer-NHNH2] | – | – | 3.01 ± 0.18 | 3.63 ± 0.02 | 2.99 ± 1.00 | 5.31 ± 0.73 | – | – |
| I: H-[Ac6c]RPDKPRPYLPRPRPPRPVR[Dab]C-NH2 / II: H-[Ac6c]RPDKPRPYLPRPRPPRPVR[Dab]C-NH2 / III: H-[Ac6c]RPDKPRPYLPRPRPPRPVR / IV: H-[Ac6c]RPDKPRPYLPRPRPPRPVR (amide I:21-III:C, II:21-IV:C; linker I:22-II:22 via Maleimide(3,4-diyl)) [tetramer-DTM-NH2] | – | – | 2.05 ± 0.08 | 2.33 ± 0.01 | 2.96 ± 0.99 | 13.29 ± 0.10 | – | – |
| I: [Ac6c]RPDKPRPYLPRPRPPRPVR[Dab] / II: [Ac6c]RPDKPRPYLPRPRPPRPVR[Dab] / III: [Ac6c]RPDKPRPYLPRPRPPRPVR / IV: [Ac6c]RPDKPRPYLPRPRPPRPVR (amide I:21-III:C, II:21-IV:C; linker I:C-II:C via X2) [tetramer-DTM-ol] | – | – | 1.86 ± 0.07 | 2.20 ± 0.01 | 3.67 ± 0.25 | 11.61 ± 1.44 | – | – |
| I: [Ac6c]RPDKPRPYLPRPRPPRPVR[Dab]C-NHNH2 / II: [Ac6c]RPDKPRPYLPRPRPPRPVR[Dab]C-NHNH2 / III: [Ac6c]RPDKPRPYLPRPRPPRPVR / IV: [Ac6c]RPDKPRPYLPRPRPPRPVR (amide I:21-III:C, II:21-IV:C; linker I:22-II:22 via BMH) [tetramer-bismal-NHNH2] | – | – | 1.62 ± 0.11 | 3.18 ± 0.03 | 3.93 ± 0.04 | 10.35 ± 0.22 | – | – |
| I: [Ac6c]RPDKPRPYLPRPRPPRPVR[Dab]C-NHNH2 / II: [Ac6c]RPDKPRPYLPRPRPPRPVR[Dab]C-NHNH2 / III: [Ac6c]RPDKPRPYLPRPRPPRPVR / IV: [Ac6c]RPDKPRPYLPRPRPPRPVR (amide I:21-III:C, II:21-IV:C; linker I:22-II:22 via X1) [tetramer-butene-NHNH2] | – | – | 0.77 ± 0.02 | 0.81 ± 0.02 | 0.94 ± 0.04 | 1.89 ± 0.63 | – | – |
| I: [Ac6c]RPDKPRPYLPRPRPPRPVR[Dab]C-NHNH2 / II: [Ac6c]RPDKPRPYLPRPRPPRPVR[Dab]C-NHNH2 / III: [Ac6c]RPDKPRPYLPRPRPPRPVR / IV: [Ac6c]RPDKPRPYLPRPRPPRPVR (amide I:21-III:C, II:21-IV:C; linker I:22-II:22 via pXylylene) [tetramer-xylene-NHNH2] | – | – | 1.51 ± 0.33 | 4.49 ± 0.56 | 6.24 ± 0.53 | 12.70 ± 0.96 | – | – |
